# Assay results: PubChem BioAssay (NCI)
#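 Grown in 96-well plates, cells were treated for 48 hours with each compound at five concentrations. Insufficient inhibition: endpoint recorded as highest concentration tested. TGI is the concentration that stops growth completely.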
# Columns and labels:
# Assay in all cases: NCI-60 cell line screen, 48 h
# [1] = test system: CAKI-1 renal
# [2] = test system: UACC-257 melanoma
# [3] = test system: HS 578T breast
# [4] = test system: CCRF-CEM leukemia
# [5] = test system: HT29 colon
# [6] = test system: MDA-N
# [7] = test system: SNB-19 CNS
# [8] = test system: MCF7 breast
# [9] = test system: SK-MEL-28 melanoma
# [10] = test system: UACC-62 melanoma
# [11] = test system: IGROV1 ovarian
# [12] = test system: NCI/ADR-RES ovarian
# [13] = test system: MDA-MB-435
# [14] = test system: RXF 393 renal
# [15] = test system: U251 CNS
# [16] = test system: 786-0 renal
# [17] = test system: ACHN renal
# [18] = test system: NCI-H522 lung
# [19] = test system: SR leukemia
# [20] = test system: SK-OV-3 ovarian
# [21] = test system: RPMI-8226 leukemia
# [22] = test system: OVCAR-8 ovarian
# [23] = test system: HCT-15 colon
# [24] = test system: SF-295 CNS
# [25] = test system: DU-145 prostate
# [26] = test system: EKVX NSCLC
# [27] = test system: KM12 colon
# [28] = test system: SF-268 CNS
# [29] = test system: PC-3 prostate
# [30] = test system: M14 melanoma
# [31] = test system: COLO 205 colon
# [32] = test system: SW-620 colon
# [33] = test system: SK-MEL-2 melanoma
# [34] = test system: OVCAR-3 ovarian
# [35] = test system: TK-10 renal
# [36] = test system: T-47D breast
# [37] = test system: A549 NSCLC
# [38] = test system: OVCAR-4 ovarian
# [39] = test system: UO-31 renal
# [40] = test system: BT-549 breast
# [41] = test system: HCC-2998 colon
# [42] = test system: HCT-116 colon
# [43] = test system: OVCAR-5 ovarian
# [44] = test system: NCI-H226 lung
# [45] = test system: MOLT-4 leukemia
# [46] = test system: K-562 leukemia
# [47] = test system: HOP-62 NSCLC
# [48] = test system: NCI-H23 lung
# [49] = test system: MALME-3M melanoma
# [50] = test system: MDA-MB-231 breast
# [51] = test system: SK-MEL-5 melanoma
# [52] = test system: A498 renal
# [53] = test system: SF-539 CNS
# [54] = test system: LOX IMVI melanoma
# [55] = test system: SNB-75 CNS
# [56] = test system: SN12C renal
# [57] = test system: NCI-H460 lung
# [58] = test system: HOP-92 NSCLC
# [59] = test system: HL-60(TB) leukemia
structure (smiles),measurement,setting,value
CN1CCCN(C)CCCN(C)CCCN(C)CCC1,TGI,[1],> 100 µM
same,TGI,[2],> 100 µM
same,TGI,[3],> 100 µM
same,TGI,[4],> 100 µM
same,TGI,[5],> 100 µM
same,TGI,[6],> 100 µM
same,TGI,[7],> 100 µM
same,TGI,[8],> 100 µM
same,TGI,[9],> 100 µM
same,TGI,[10],> 100 µM
same,TGI,[11],> 100 µM
same,TGI,[12],> 100 µM
same,TGI,[13],> 100 µM
same,TGI,[14],> 100 µM
same,TGI,[15],> 100 µM
same,TGI,[16],> 100 µM
same,TGI,[17],> 100 µM
same,TGI,[18],> 100 µM
same,TGI,[19],> 100 µM
same,TGI,[20],> 100 µM
same,TGI,[21],> 100 µM
same,TGI,[22],> 100 µM
same,TGI,[23],> 100 µM
same,TGI,[24],> 100 µM
same,TGI,[25],> 100 µM
same,TGI,[26],> 100 µM
same,TGI,[27],> 100 µM
same,TGI,[28],> 100 µM
same,TGI,[29],> 100 µM
same,TGI,[30],> 100 µM
same,TGI,[31],> 100 µM
same,TGI,[32],> 100 µM
same,TGI,[33],> 100 µM
same,TGI,[34],> 100 µM
same,TGI,[35],> 100 µM
same,TGI,[36],> 100 µM
same,TGI,[37],> 100 µM
same,TGI,[38],> 100 µM
same,TGI,[39],> 100 µM
same,TGI,[40],> 100 µM
same,TGI,[41],> 100 µM
same,TGI,[42],> 100 µM
same,TGI,[43],> 100 µM
same,TGI,[44],> 100 µM
same,TGI,[45],> 100 µM
same,TGI,[46],> 100 µM
same,TGI,[47],> 100 µM
same,TGI,[48],> 100 µM
same,TGI,[49],> 100 µM
same,TGI,[50],> 100 µM
same,TGI,[51],> 100 µM
CN(C)CCNC(=O)c1cccc2c(NC(CCCN=C(N)N)C(=O)O)c3ccccc3[n+](C)c12 (stereo unspecified),TGI,[2],> 100 µM
same,TGI,[3],> 100 µM
same,TGI,[52],> 100 µM
same,TGI,[5],> 100 µM
same,TGI,[53],> 100 µM
same,TGI,[6],> 100 µM
same,TGI,[7],> 100 µM
same,TGI,[8],> 100 µM
same,TGI,[9],> 100 µM
same,TGI,[10],> 100 µM
same,TGI,[11],> 100 µM
same,TGI,[12],80.9 µM
same,TGI,[13],> 100 µM
same,TGI,[15],> 100 µM
same,TGI,[54],> 100 µM
same,TGI,[16],> 100 µM
same,TGI,[17],> 100 µM
same,TGI,[19],> 100 µM
same,TGI,[55],> 100 µM
same,TGI,[20],> 100 µM
same,TGI,[21],> 100 µM
same,TGI,[22],> 100 µM
same,TGI,[23],> 100 µM
same,TGI,[24],> 100 µM
same,TGI,[25],> 100 µM
same,TGI,[56],> 100 µM
same,TGI,[26],> 100 µM
same,TGI,[27],> 100 µM
same,TGI,[28],92.6 µM
same,TGI,[29],> 100 µM
same,TGI,[30],> 100 µM
same,TGI,[31],> 100 µM
same,TGI,[32],> 100 µM
same,TGI,[33],> 100 µM
same,TGI,[34],> 100 µM
same,TGI,[35],> 100 µM
same,TGI,[36],> 100 µM
same,TGI,[37],> 100 µM
same,TGI,[38],> 100 µM
same,TGI,[39],> 100 µM
same,TGI,[40],> 100 µM
same,TGI,[41],> 100 µM
same,TGI,[42],> 100 µM
same,TGI,[43],> 100 µM
same,TGI,[44],94.5 µM
same,TGI,[45],> 100 µM
same,TGI,[46],> 100 µM
same,TGI,[47],> 100 µM
same,TGI,[57],> 100 µM
same,TGI,[48],> 100 µM
same,TGI,[49],> 100 µM
same,TGI,[50],> 100 µM
same,TGI,[51],> 100 µM
COCC1OC(OC2OCC3OC4(OCC(O)(C(C)OC)C5OCOC54)OC3C2OC)C(OC)C(O)C1OC1OC(C)C(OC)C(OC2OC(C)C3OC4(CC(O)C(OC5CC(OC6CC(C)([N+](=O)[O-])C(OC)C(C)O6)C(OC(=O)c6c(C)c(Cl)c(O)c(Cl)c6OC)C(C)O5)C(C)O4)OC3(C)C2O)C1O (stereo unspecified),TGI,[1],> 100 µM
same,TGI,[2],> 100 µM
same,TGI,[3],> 100 µM
same,TGI,[52],> 100 µM
same,TGI,[4],> 100 µM
same,TGI,[5],> 100 µM
same,TGI,[53],> 100 µM
same,TGI,[6],> 100 µM
same,TGI,[7],> 100 µM
same,TGI,[9],> 100 µM
same,TGI,[10],> 100 µM
same,TGI,[11],> 100 µM
same,TGI,[12],> 100 µM
same,TGI,[58],> 100 µM
same,TGI,[13],> 100 µM
same,TGI,[14],> 100 µM
same,TGI,[15],> 100 µM
same,TGI,[54],> 100 µM
same,TGI,[16],> 100 µM
same,TGI,[17],> 100 µM
same,TGI,[18],> 100 µM
same,TGI,[19],> 100 µM
same,TGI,[55],> 100 µM
same,TGI,[20],> 100 µM
same,TGI,[21],> 100 µM
same,TGI,[22],> 100 µM
same,TGI,[23],> 100 µM
same,TGI,[24],> 100 µM
same,TGI,[25],> 100 µM
same,TGI,[56],> 100 µM
same,TGI,[26],> 100 µM
same,TGI,[27],> 100 µM
same,TGI,[28],> 100 µM
same,TGI,[59],> 100 µM
same,TGI,[29],> 100 µM
same,TGI,[30],> 100 µM
same,TGI,[31],> 100 µM
same,TGI,[32],> 100 µM
same,TGI,[33],> 100 µM
same,TGI,[34],> 100 µM
same,TGI,[35],> 100 µM
same,TGI,[36],> 100 µM
same,TGI,[37],> 100 µM
same,TGI,[38],> 100 µM
same,TGI,[39],> 100 µM
same,TGI,[40],> 100 µM
same,TGI,[41],> 100 µM
same,TGI,[42],> 100 µM
same,TGI,[43],> 100 µM
same,TGI,[44],> 100 µM
same,TGI,[45],> 100 µM
same,TGI,[46],> 100 µM
same,TGI,[47],> 100 µM
same,TGI,[57],> 100 µM
same,TGI,[48],> 100 µM
same,TGI,[50],> 100 µM
same,TGI,[51],> 100 µM
